8 compounds from PubChem BioAssay (NCI) can be followed below.

Some test systems named below: EKVX NSCLC; SNB-75 CNS; HS 578T breast; NCI-H226 lung; LOX IMVI melanoma; SK-OV-3 ovarian; CAKI-1 renal; HL-60(TB) leukemia; NCI-H460 lung; OVCAR-3 ovarian.
Assay in all cases: DTP human tumour cell line panel, 48 h

Where “and” joins values, the source holds several entries; their conditions need not be identical. Equal values may be shown once.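 Dose response: 5 concentrations. Exposure: 48 h. Format: 96-well plates. Endpoint: linear interpolation; highest concentration if not reached. GI50 marks 50% less growth. TGI is the concentration that stops growth completely.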 *1 amine or outer side, *2 acyl side, *3 side chain or, on linkers, in order; H or OH if unused. Where a SMILES comes first, the peptide text is derived from it. Bridges are numbered along the chain shown (N, C = ends). Roman numbers before positions name the chains, in order. [ ]: non-standard residue; d: D form. Actinocin(9to1) = Cc1c2oc3c(C)ccc(C(=O)[*:1])c3nc-2c(C(=O)[*:2])c(N)c1=O; NMeV = CN[CH](C(=O)O)C(C)C; Sar = CNCC(=O)O

In the case of `O=C1C=C2C=CC3CC2(O1)C1CCCCN31` (stereo unspecified), the GI50 (commonly the concentration giving 50% growth inhibition) in the assay on EKVX NSCLC is 14.1 µM and 11.6 µM and 38.6 µM; with SNB-75 CNS, 24.2 µM and 14.6 µM and 31.7 µM; in the assay with HS 578T breast, 67.8 µM and 29.3 µM and 63.3 µM; in the assay with NCI-H226 lung it was 19.7 µM and 6 µM and 51.7 µM; in the assay on LOX IMVI melanoma it was 17.7 µM and 18 µM and 53.3 µM; in the assay with CAKI-1 renal, 17.7 µM and 22.3 µM and 43.3 µM. In addition, the GI50 in the assay on NCI-H460 lung is 22.1 µM and 15.1 µM and 31.7 µM; in the assay on OVCAR-3 ovarian, 18600 nM and 17300 nM and 40600 nM. Besides, the TGI (usually the concentration at which net growth stops) was 57.4 µM and 35.5 µM and > 100 µM in the assay on EKVX NSCLC; > 100 µM and 62.3 µM and 95.8 µM in the assay on SNB-75 CNS; above 100 µM with HS 578T breast; > 100 µM and 45.3 µM in the assay on NCI-H226 lung; 44.4 µM and 42.8 µM and > 100 µM in the assay on LOX IMVI melanoma; > 100 µM and 58 µM and 90.6 µM with SK-OV-3 ovarian. In addition, the TGI in the assay on CAKI-1 renal was 78.8 µM and 79.5 µM and > 100 µM; with HL-60(TB) leukemia it was 79.2 µM; in the assay on NCI-H460 lung it was 96.3 µM and 67.1 µM and > 100 µM; in the assay with OVCAR-3 ovarian, 69.6 µM and 48.1 µM and > 100 µM.

As for `COC12C=C/C(=C(/C(=O)OCCSc3ccnn3C)C(=O)CCCCCCCCC3(OC)C=C/C(=C(/C(=O)OCCSc4ccnn4C)C(=O)CCCCCCCC1)O3)O2`, the GI50 in the assay with EKVX NSCLC is 1.15 µM; in the assay with SNB-75 CNS, 0.999 µM; in the assay on HS 578T breast it was 1.23 µM; with NCI-H226 lung, 0.827 µM; in the assay with LOX IMVI melanoma it was 0.573 µM; with SK-OV-3 ovarian, 1660 nM. Besides, the GI50 in the assay on CAKI-1 renal is 1.18 µM; with HL-60(TB) leukemia, 929 nM; in the assay with NCI-H460 lung it was 1.07 µM; in the assay with OVCAR-3 ovarian, 966 nM. The concentration for total growth inhibition (TGI) is 12.1 µM in the assay on EKVX NSCLC; 4.9 µM in the assay with SNB-75 CNS; above 32.5 µM with HS 578T breast; 1.76 µM with NCI-H226 lung; 1.18 µM in the assay on LOX IMVI melanoma; 24.9 µM in the assay on SK-OV-3 ovarian. The TGI was above 32.5 µM in the assay on CAKI-1 renal, 2.63 µM with HL-60(TB) leukemia, 3.76 µM in the assay on NCI-H460 lung and 2.77 µM in the assay on OVCAR-3 ovarian.

Take `c1cc(CN2CCCNCCNCCCNCC2)ccc1CN1CCCNCCNCCCNCC1`: the GI50 was above 100 µM with EKVX NSCLC; above 100 µM in the assay with SNB-75 CNS; above 100 µM in the assay with HS 578T breast; above 100 µM with NCI-H226 lung; above 100 µM in the assay with LOX IMVI melanoma; above 100000 nM with SK-OV-3 ovarian. For the same compound, the GI50 is above 100 µM in the assay on CAKI-1 renal, above 100000 nM with HL-60(TB) leukemia, above 100 µM with NCI-H460 lung and above 100000 nM in the assay on OVCAR-3 ovarian. Further, the TGI in the assay on EKVX NSCLC, in the assay with SNB-75 CNS, in the assay with HS 578T breast, in the assay on NCI-H226 lung, in the assay on LOX IMVI melanoma and in the assay on SK-OV-3 ovarian was above 100 µM in each case. Also, the TGI with CAKI-1 renal, with HL-60(TB) leukemia, in the assay with NCI-H460 lung and in the assay with OVCAR-3 ovarian was above 100 µM each time.

For `O=C(O)C1CCN(Cc2oc(CO)cc(=O)c2O)C1` (stereo unspecified), the TGI in the assay with EKVX NSCLC, in the assay with SNB-75 CNS, with HS 578T breast, with NCI-H226 lung, with LOX IMVI melanoma and with SK-OV-3 ovarian was above 100 µM throughout. Besides, the TGI in the assay on CAKI-1 renal, in the assay with HL-60(TB) leukemia, with NCI-H460 lung and in the assay with OVCAR-3 ovarian was above 100 µM in each case.

For the compound `COc1cccc(Sc2ccc([N+](=O)[O-])c3no[n+]([O-])c23)c1`, the GI50 was 14.8 µM in the assay on EKVX NSCLC; 13.9 µM with SNB-75 CNS; 16.2 µM in the assay with HS 578T breast; 18.2 µM in the assay on NCI-H226 lung; 3.38 µM in the assay on LOX IMVI melanoma; 29800 nM in the assay on SK-OV-3 ovarian. In addition, the GI50 was 10.5 µM with CAKI-1 renal, 5120 nM in the assay on HL-60(TB) leukemia, 18.7 µM with NCI-H460 lung and 2830 nM in the assay on OVCAR-3 ovarian. Also, the TGI with EKVX NSCLC is 39.5 µM; with SNB-75 CNS, 39.4 µM; in the assay on HS 578T breast, 61.7 µM; in the assay on NCI-H226 lung, 53.5 µM; in the assay on LOX IMVI melanoma, 11.5 µM; in the assay on SK-OV-3 ovarian, above 77.7 µM. Besides, the TGI with CAKI-1 renal came out at 24.1 µM; with HL-60(TB) leukemia it was 14.6 µM; in the assay with NCI-H460 lung, 40.8 µM; with OVCAR-3 ovarian it was 7.48 µM.

On to `O=C(Nc1ccc2ncnc(Nc3ccc(Oc4cccc(F)c4)c(Cl)c3)c2c1)c1ccc(CN2CCOCC2)cc1`, for which the GI50 in the assay with EKVX NSCLC is 1.86 µM; in the assay on SNB-75 CNS, 1.97 µM; with HS 578T breast, 1.96 µM; with NCI-H226 lung, 5.12 µM; in the assay with LOX IMVI melanoma, 2.24 µM; in the assay with SK-OV-3 ovarian it was 1660 nM. Besides, the GI50 in the assay with CAKI-1 renal was 2.18 µM; with HL-60(TB) leukemia, 2690 nM; with NCI-H460 lung it was 2.39 µM; with OVCAR-3 ovarian, 2160 nM. The TGI was 38.2 µM with EKVX NSCLC; 9.22 µM in the assay on SNB-75 CNS; 7.04 µM with HS 578T breast; 33.7 µM in the assay with NCI-H226 lung; 5.33 µM in the assay with LOX IMVI melanoma; above 100 µM in the assay on SK-OV-3 ovarian. The TGI in the assay with CAKI-1 renal was 10.5 µM; in the assay on HL-60(TB) leukemia, 7.88 µM; in the assay on NCI-H460 lung, 6.39 µM; in the assay on OVCAR-3 ovarian, 7 µM.

Turning to `Cc1c2oc3c(C)ccc(C(=O)OC(C)C4NC(=O)C(C(C)C)N(C)C(=O)CN(C)C(=O)C5CCCN5C(=O)C(C(C)C)NC4=O)c3nc-2c(C(=O)OC(C)C2NC(=O)C(C(C)C)N(C)C(=O)CN(C)C(=O)C3CCCN3C(=O)C(C(C)C)NC2=O)c(N)c1=O` (stereo unspecified) (I: cyclo([Sar][NMeV]TVP) / II: cyclo([Sar][NMeV]TVP); linker I:3-II:3 via Actinocin(9to1); configuration not given here), the GI50 in the assay with EKVX NSCLC is 0.022 µM; in the assay on SNB-75 CNS, below 0.0109 µM; in the assay with HS 578T breast it was 0.0192 µM; in the assay on NCI-H226 lung, below 0.01 µM; with LOX IMVI melanoma, below 0.01 µM; with SK-OV-3 ovarian, 19.2 nM. Also, the 50% growth inhibitory concentration (GI50) in the assay on CAKI-1 renal is 0.0596 µM; with HL-60(TB) leukemia, below 16.5 nM; in the assay on NCI-H460 lung, below 0.01 µM; in the assay with OVCAR-3 ovarian, below 10 nM. Also, the concentration for total growth inhibition (TGI) with SNB-75 CNS was 0.039 µM; in the assay on NCI-H226 lung, 0.0335 µM; with LOX IMVI melanoma, above 35 µM; in the assay with SK-OV-3 ovarian, above 100 µM; with HL-60(TB) leukemia it was 0.212 µM; in the assay on NCI-H460 lung, above 32.7 µM. In the assay with OVCAR-3 ovarian, this compound yielded a TGI of 0.032 µM.

In the case of `CCN1C(=O)N(CC)C2C1NN=c1s/c(=C\c3cccs3)c(=O)n12` (stereo unspecified), the TGI in the assay on EKVX NSCLC was above 100 µM; in the assay on SNB-75 CNS, above 100 µM; with NCI-H226 lung, above 23 µM; in the assay with LOX IMVI melanoma, above 100 µM; in the assay on SK-OV-3 ovarian, above 100 µM; with CAKI-1 renal, above 100 µM. Further, in the assay on HL-60(TB) leukemia, the TGI came out at 0.707 µM. Also, the GI50 was 0.0976 µM in the assay with SNB-75 CNS; 0.112 µM in the assay on HS 578T breast; 2.76 µM with NCI-H226 lung; 0.139 µM with LOX IMVI melanoma; 649 nM with SK-OV-3 ovarian; 0.0745 µM in the assay with CAKI-1 renal. For the same compound, the GI50 in the assay on HL-60(TB) leukemia was 225 nM; in the assay with NCI-H460 lung, 0.119 µM; with OVCAR-3 ovarian, 46.2 nM.
